# From article PMC10545747, “Development of cyclopeptide inhibitors of cGAS targeting protein-DNA interaction and phase separation” (Nature Communications, 2023)
# “And” between values parts separate entries of the source, which are not always exact repeats. Equal values may be shown once. “Also recorded” adds a separate entry of the source. Square brackets hold non-standard residues; d marks the D form. Peptide text beside a SMILES is read from it.
# Tests used:
# L929 cells = test: ISD-induced autophagy, LC3-II immunoblotting; assay type: cell-based, mouse; conditions: for LC3-II relative gray ratio (normalized to GAPDH), Fig. S3a: ISD +
# Procedure: Total cell lysates were prepared in RIPA lysis buffer (Beyotime Biotechnology) supplemented with 1 mM PMSF and 1× protease inhibitor cocktail (Yeasen), and nuclear protein was extracted by nuclear protein extraction kit (Solarbio) in accordance with the manufacturer’s instructions. The samples were separated by SDS-PAGE and transferred to the PVDF membrane (Millipore). The membranes were incubated with the indicated primary antibodies at 4 °C overnight and then incubated with an HRP-conjugated anti-rabbit IgG antibody (Cell Signaling, Cat# 7074, 1:5000) or anti-mouse IgG antibody (Cell Signaling, Cat# 7076, 1:5000) at room temperature for 1 h. The signal was visualized by using the NcmECL Ultra kit (New Cell & Molecular Biotech) and then was exposed by using MiniChemi (SageCreation).
# Supplementary Fig. 3. […] (a) L929 cells were pretreated for
# 4 h with DMSO or the indicated doses of XQ2, followed by stimulation with dsDNA for 4 h, and then cell lysates were
# (b) Jurkat cells were exposed to the indicated doses of XQ2, and then stimulated with
# Data are representative of three independent experiments in (a, b). (Data are presented as mean ± SD, n = 3 independent
# provided as a Source Data file.
# (1 picture or pasted object on this page, not shown here)
# [1] = system: dsDNA-stimulated THP1 cells; test: qPCR of IFNB1/CXCL10/IL6 mRNA in THP1 cells stimulated by dsDNA (ISD, HSV60mer); assay type: cell-based, human; conditions: for IFNB1 mRNA, qPCR, Fig. 2b: 10 μM
# Source text: To screen direct cGAS inhibitors targeting protein-DNA interface from our developed focused library of macrocyclic peptides, we applied an RNA-based fluorescent biosensor for 2’,3’-cGAMP to detect cGAS activity in vitro (Supplementary Fig. 1a)[49]. The formation of 2’,3’-cGAMP from ATP and GTP was catalyzed by recombinant human cGAS enzyme (hcGAS-ΔN, residues 147–522, Supplementary Fig. 1b) in the presence of ISD (interferon stimulatory DNA, a 45-bp dsDNA), which was readily quantified by the RNA-based fluorescent biosensor and was further confirmed by ion exchange chromatography (Supplementary Fig. 1c). […] Subsequently, a total of 90 macrocyclic peptides were screened at a concentration of 20 μM (Fig. 1a and Supplementary Fig. 1e), and 4 hits (XQ2, XQ8, XQ19, and XQ46) were obtained for further testing at a cut-off of 40% inhibition (Supplementary Table 1). To evaluate the inhibitory effect of the hits against cGAS in cells, we employed real-time quantitative PCR (qPCR) to examine mRNA levels of IFNΒ1 in THP1 cells. The reported cGAS inhibitor RU.521 was used as the positive control, and the non-active peptide XQ28 in the screening assay was used as the negative control. […] The inhibition of cGAS by these hits was further confirmed in the reporter cell line THP1-Lucia ISG (Invivogen) that expresses secreted luciferase induced by an IRF3-inducible ISG54 promoter (Fig. 1c). The discrepancy between the inhibitory effect of the hits in protein and cellular assays may be attributed to their different cellular permeability.
# The indicated cells were stimulated with either ISD (Sangon Biotech), HSV-1 (Provided by Dr. Zhengfan Jiang), HSV60mer (Sangon Biotech), SATE-cddA[70], 2’3’-cGAMP (Invivogen, Cat# tlrl-nacga23-1), ADU-S100 (MedChemExpress, Cat# HY-12885A) or Poly(I:C) (Invivogen, Cat# tlrl-pic) after XQ2 or XQ2B treatment. Total RNA was isolated from indicated cells that incubated with the drugs for indicated time or mice tissues by using NucleoZOL reagent (MACHEREY-NAGEL) according to the manufacturer’s instructions. The quantifications of mRNA levels were carried out by real-time PCR using a PerfectStart® Uni RT&qPCR Kit (TransGen Biotech) on the QuantStudio 5 qPCR machine (Applied Biosystems). Samples were carried out in triplicate and the target CT values were normalized to GAPDH CT values. Primers of qPCR used in this study can be found in Supplementary Table S2.
smiles,measurement,setting,value
"CC(C)C[C@@H]1NC(=O)[C@H](CCCNC(=N)N)NC(=O)[C@H](C(C)C)NC(=O)[C@@H]2CCCN2C(=O)[C@@H](Cc2ccccc2)NC(=O)[C@H](CC(C)C)NC(=O)[C@H](CCCNC(=N)N)NC(=O)[C@H](C(C)C)NC(=O)[C@H](C)NC(=O)[C@@H](Cc2ccccc2)NC1=O [XQ2, Cyclo (LfAVRLfPVR)] (cyclo(L[dF]AVRL[dF]PVR))","ISD-induced autophagy, LC3-II formation",L929 cells,significantly reduced ISD-induced autophagy
same,"LC3-II relative gray ratio (normalized to GAPDH), Fig. S3a",L929 cells; XQ2 5 μM,1.62 and 1.737 and 1.498
same,"LC3-II relative gray ratio (normalized to GAPDH), Fig. S3a",L929 cells; XQ2 10 μM,1.275 and 1.336 and 1.295
same,CXCL10 mRNA (Fig. S2a),"[1]; ISD, XQ2 0.31 μM",608.071 and 547.477 and 553.882
same,IFNB1 mRNA (Fig. S2a),"[1]; ISD, XQ2 0.31 μM",85.2902 and 89.4127 and 103.445
same,IL6 mRNA (Fig. S2a),"[1]; ISD, XQ2 0.31 μM",53.8661 and 62.1977 and 48.2598
same,CXCL10 mRNA (Fig. S2a),"[1]; ISD, XQ2 0.63 μM",550.9 and 499.514 and 482.522
same,IFNB1 mRNA (Fig. S2a),"[1]; ISD, XQ2 0.63 μM",75.3551 and 77.8155 and 85.6546
same,IL6 mRNA (Fig. S2a),"[1]; ISD, XQ2 0.63 μM",45.9203 and 56.9516 and 44.1827
same,CXCL10 mRNA (Fig. S2a),"[1]; ISD, XQ2 1.25 μM",440.727 and 424.983 and 441.062
same,IFNB1 mRNA (Fig. S2a),"[1]; ISD, XQ2 1.25 μM",54.4915 and 50.1897 and 58.943
same,IL6 mRNA (Fig. S2a),"[1]; ISD, XQ2 1.25 μM",59.6412 and 54.8577 and 42.9996
same,CXCL10 mRNA (Fig. S2a),"[1]; ISD, XQ2 2.5 μM",320.996 and 337.289 and 307.846
same,IFNB1 mRNA (Fig. S2a),"[1]; ISD, XQ2 2.5 μM",46.4673 and 40.8489 and 46.9306
same,IL6 mRNA (Fig. S2a),"[1]; ISD, XQ2 2.5 μM",51.498 and 49.1657 and 30.2376
same,CXCL10 mRNA (Fig. S2a),"[1]; ISD, XQ2 5 μM",341.101 and 357.811 and 355.382
same,IFNB1 mRNA (Fig. S2a),"[1]; ISD, XQ2 5 μM",26.7077 and 29.7394 and 30.8514
same,IL6 mRNA (Fig. S2a),"[1]; ISD, XQ2 5 μM",24.0755 and 29.7141 and 20.0828
same,CXCL10 mRNA (Fig. S2a),"[1]; ISD, XQ2 10 μM",329.162 and 346.227 and 299.128
same,IFNB1 mRNA (Fig. S2a),"[1]; ISD, XQ2 10 μM",10.6974 and 11.3948 and 12.0973
same,IL6 mRNA (Fig. S2a),"[1]; ISD, XQ2 10 μM",18.3875 and 16.237 and 20.2076
same,CXCL10 mRNA (Fig. S2a),"[1]; Mock, XQ2 0.31 μM",0.6255 and 0.7855 and 0.8542
same,IFNB1 mRNA (Fig. S2a),"[1]; Mock, XQ2 0.31 μM",0.7527 and 0.6452 and 0.8722
same,IL6 mRNA (Fig. S2a),"[1]; Mock, XQ2 0.31 μM",0.9875 and 1.125 and 1.458
same,CXCL10 mRNA (Fig. S2a),"[1]; Mock, XQ2 0.63 μM",0.4588 and 0.432 and 0.4044
same,IFNB1 mRNA (Fig. S2a),"[1]; Mock, XQ2 0.63 μM",0.713 and 0.5919 and 0.8053
same,IL6 mRNA (Fig. S2a),"[1]; Mock, XQ2 0.63 μM",1.48 and 1.078 and 1.222
same,CXCL10 mRNA (Fig. S2a),"[1]; Mock, XQ2 1.25 μM",1.308 and 1.359 and 1.615
same,IFNB1 mRNA (Fig. S2a),"[1]; Mock, XQ2 1.25 μM",0.9026 and 1.107 and 1.382
same,CXCL10 mRNA (Fig. S2a),"[1]; Mock, XQ2 2.5 μM",3.137 and 2.991 and 2.833
same,IFNB1 mRNA (Fig. S2a),"[1]; Mock, XQ2 2.5 μM",1.426 and 1.751 and 1.799
same,IL6 mRNA (Fig. S2a),"[1]; Mock, XQ2 2.5 μM",2.387 and 2.459 and 3.439
same,CXCL10 mRNA (Fig. S2a),"[1]; Mock, XQ2 5 μM",1.923 and 2.134 and 2.246
same,IFNB1 mRNA (Fig. S2a),"[1]; Mock, XQ2 5 μM",1.17 and 1.093 and 1.0788
same,CXCL10 mRNA (Fig. S2a),"[1]; Mock, XQ2 10 μM",4.593 and 4.941 and 4.3739
same,IFNB1 mRNA (Fig. S2a),"[1]; Mock, XQ2 10 μM",1.523 and 2.285 and 2.284
same,IL6 mRNA (Fig. S2a),"[1]; Mock, XQ2 10 μM",4.656 and 4.111 and 3.925
same,"dsDNA/ISD-induced IFNB1, CXCL10, IL6 expression",[1]; THP1,"inhibited the expression level of IFNΒ1 and CXCL10, as well as IL6; also recorded: best potency in the cellular assays"
same,"IFNB1 mRNA, qPCR, Fig. 2b","[1]; THP1, ISD",72.2364 and 85.3888 and 75.3743
same,"IFNB1 mRNA, qPCR, Fig. 2b","[1]; THP1, Mock (no stimulus)",1.523 and 2.285 and 2.284
same,"IFNB1 mRNA, qPCR, Fig. 1b","[1]; THP1, dsDNA 6 h, hits 10 μM, replicate values",24.5085 and 22.546 and 27.0371
